# Experimental data as given in US20240101585A1, “HETEROAROMATIC PHOSPHONIUM SALTS AND THEIR USE TREATING CANCER” (FLORATEK PHARMA AG, priority 2021, published 2024).
# Experiments:
# [1] = tested on: breast and colon carcinomas, lymphoma and melanoma cancer cell growth; assay: CellTiter-Glow cell viability assay, cancer cell line panel (summary statement); format: cell-based; conditions: lymphoma and melanoma cell lines of Table 2, read-out: IC50s, cancer cell growth inhibition
# Experimental: (§1) Antitumor activity of the compounds and doxorubicin as a positive control was assessed by using the CellTiter-Glow® Luminescent Cell Viability assay (Promega #G7572) according to the manufacturer's instructions. The compounds were tested at 5 or 6 concentrations in half-log increments (highest concentration 30 μM or 100 μM) in duplicate or triplicate well conditions.
# (§2) Tumor cells were grown at 37° C. in a humidified atmosphere with 5% CO2 in RPMI 1640 or DMEM medium, supplemented with 10% (v/v) fetal calf serum and 50 μg/ml gentamicin for up to 20 passages, and were passaged once or twice weekly. Cells were harvested using TrypLE or PBS buffer containing 1 mM EDTA, and the percentage of viable cells was determined using a CASY Model TI cell counter (OMNI Life Science). Cells were harvested from exponential phase cultures, counted and plated in 96 well flat-bottom microtiter plates at a cell density depending on the cell line's growth rate (4,000-20,000 cells/well depending on the cell line's growth rate, up to 60,000 for hematological cancer cell lines) in RPMI 1640 or DMEM medium supplemented with 10% (v/v) fetal calf serum and 50 μg/ml gentamicin (140 μl/well). […] Viability of cells was quantified by or CellTiter-Glow® Luminescent Cell Viability assay (Promega #G7572). Luminescence was measured with a microplate luminometer (Promega or PerkinElmer. […]
# A375 = assay: CellTiter-Glow Luminescent Cell Viability assay, A375 (melanoma); format: cell-based; conditions: Homo sapiens, A-375, 72 h, absolute IC50 (T/C=50%), read-out: IC50 against A375
# Experimental: as §1, §2
# SK-Mel-5 = assay: CellTiter-Glow Luminescent Cell Viability assay, SK-Mel-5 (melanoma); format: cell-based; conditions: Homo sapiens, 72 h, absolute IC50 (T/C=50%), read-out: IC50 against SK-Mel-5
# Experimental: as §1, §2
# KM12 = assay: CellTiter-Glow Luminescent Cell Viability assay, KM12 (colon); format: cell-based; conditions: Homo sapiens, 72 h, absolute IC50 (T/C=50%), read-out: IC50 against KM12
# Experimental: as §1, §2
# [2] = In vivo tolerability, maximum tolerated dose in nude mice
# Experimental: To assess the toxicity of the test compounds in vivo and to determine the maximum tolerated dose 4 BALB/c Nude male mice, 4-9 weeks old were injected intraperitoneally (i.p) with various doses of the drug or vehicle 2.5% DMSO/5% EtOH/20% PEG200 in saline. The volume of the injection was 5 ml/kg. The administered doses were confirmed by LC-UV or LC-MS/MS.
# Mice were monitored for body weight before each injection and twice a day for clinical signs of toxicity.
# All procedures related to animal handling, care and the treatment in the study were performed according to the guidelines of the Association for Assessment and Accreditation of Laboratory Animal Care (AAALAC).
# In order to assess the in vivo toxicity of SND350 various doses of the drug were administered either as a single dose or repeat doses into nude mice.
# Farage = assay: CellTiter-Glow Luminescent Cell Viability assay, Farage (lymphoma); format: cell-based; conditions: 72 h, absolute IC50 (T/C=50%), read-out: IC50 against Farage
# Experimental: as §1, §2
# A2058 = assay: CellTiter-Glow Luminescent Cell Viability assay, A2058 (melanoma); format: cell-based; conditions: Homo sapiens, 72 h, absolute IC50 (T/C=50%), read-out: IC50 against A2058
# Experimental: as §1, §2
# MDA-MB-468 = assay: CellTiter-Glow Luminescent Cell Viability assay, MDA-MB-468 (breast); format: cell-based; conditions: Homo sapiens, 72 h, absolute IC50 (T/C=50%), read-out: IC50 against MDA-MB-468
# Experimental: as §1, §2
# U937 = assay: CellTiter-Glow Luminescent Cell Viability assay, U937 (lymphoma); format: cell-based; conditions: Homo sapiens, U-937, 72 h, absolute IC50 (T/C=50%), read-out: IC50 against U937
# Experimental: as §1, §2
smiles,measurement,setting,value
"COc1c(O)cc(O)c2c(=O)cc(-c3ccc(CCCCC[P+](c4ccccc4)(c4ccccc4)c4ccccc4)cc3)oc12.[Br-] [SND350, (5-(4-(5,7-dihydroxy-8-methoxy-4-oxo-4H-chromen-2-yl)phenyl)pentyl)triphenylphosphonium bromide]",IC50,[1],< 10 µM
same,IC50,A375,8.9 µM
same,IC50,SK-Mel-5,2.1 µM
same,IC50,KM12,2.8 µM
same,tolerability of multiple administrations,"[2]; i.p., qod for a total of 7 injections, 10 mg/kg/inj",well tolerated
same,MTD,"[2]; male, BALB/c Nude, mouse, in vivo, ip, single i.p. administration",40 mg/kg
same,IC50,Farage,0.8 µM
same,IC50,A2058,6.5 µM
same,IC50,MDA-MB-468,2.8 µM
same,IC50,U937,2.9 µM
